Results: patent US20040023884A1, “Biologically active peptides from functional domains of bactericidal/permeability-increasing protein and uses thereof” (priority 1993, published 2004)

Tests used:
[1] = test system: rough mutant E. coli J5 bacteria; experiment: Radial diffusion bactericidal assay, E. coli J5; type: cell-based; settings: for pmol added to well to achieve a 30 mm^2 bactericidal zone, E. coli J5: radial diffusion, PROBIT analysis, E. coli J5 (rough)
Summary of the method: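 Log-phase bacteria, washed in 10 mM sodium phosphate pH 7.4, were seeded at 4×10^6 CFU/mL in underlayer agarose. BPI fragments (5 or 10 μL) went into 3 mm wells for 3 h at 37° C., then overlayer agarose was added. After overnight 37° C. incubation, clearing zones were measured by micrometer.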

[2] = 3H-heparin binding assay (affinity and capacity); settings: for Heparin Capacity: heparin bound at saturation; for Kd: read-out: Heparin Affinity; for HEPCAP (x Fold change in activity): heparin binding capacity
Summary of the method: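 Peptide fragments were bound to PVDF-membrane wells and incubated with 3H-heparin in blocking buffer for 1 h at 4 °C. After washing, bound radioactivity was quantified by liquid scintillation counting, with BSA background subtracted; rBPI23 served as positive control.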

[3] = test system: E. coli 0113 LPS; experiment: Limulus Amoebocyte Lysate (LAL) inhibition assay; type: biochemical; settings: for LAL (relative difference): alanine variant relative to BPI.2
Experimental: BPI proteolytic fragments produced according to Example 1 were subjected to a Limulus Amoebocyte Lysate (LAL) inhibition assay to determine LPS binding properties of these fragments. Specifically, each of the fragments were mixed in Eppendorf tubes with a fixed concentration of E. coli 0113 LPS (4 ng/mL final concentration) and incubated at 37° C. for 3 hours with occasional shaking. Addition controls comprising rBPI23 at 0.05 μg/mL were also tested. Following incubation, 360 μL of Dulbecco's phosphate buffered saline (D-PBS; Grand Island Biological Co. (GIBCO), Long Island, N.Y.) were added per tube to obtain an LPS concentration of 200 pg/mL for the LAL assay. Each sample was then transferred into Immulon II strips (Dynatech, Chantilly, Va.) in volumes of 50 μl per well.
Limulus amoebocyte Lysate (Quantitative Chromogenic LAL kit, Whitaker Bioproducts, Inc., Walkersville, Md.) was added at 50 μL per well and the wells were incubated at room temperature for 25 minutes. Chromogenic substrate was then added at a volume of 100 μL per well and was well mixed. After incubation for 20 to 30 minutes at room temperature, the reaction was stopped with addition of 100 μL of 25% (v/v) acetic acid. Optical density at 405 nm was then measured in a multiplate reader (Model Vmax, […], Menlo Park, Calif.) with the results shown in FIG. 2 in terms of percent inhibition of LPS. In this Figure, the filled circle represents rBPI23; the open circle represents Asp-N fragment A3; the x represents Asp-N fragment A2, the filled square represents Asp-N fragment A4; the filled triangle represents Asp-N fragment A1A2; the open square represents Asp-N fragment A6a; the small open triangle represents CNBr fragment C3; and the small filled square represents CNBr fragment C1/C5.

[4] = test system: E. coli 0111:B4 (smooth) bacteria; experiment: Radial diffusion bactericidal assay, E. coli 0111:B4; type: cell-based; settings: radial diffusion; PROBIT analysis; E. coli O111:B4 (smooth)

Sequence | pmol added to well to achieve a 30 mm^2 bactericidal zone, E. coli J5 [1] | Heparin Capacity [2] | Kd [2] | LAL (relative difference) [3] | pmol added to well to achieve a 30 mm^2 bactericidal zone, E. coli O111:B4 [4] | LAL / LPS inhibition activity (in words) [3] | HEPCAP (x Fold change in activity) ([2]; relative to BPI.2) | fold reduction in bactericidal activity in the radial diffusion assay ([1]; alanine variant vs unsubstituted peptide) | heparin binding capacity, fold lower than the unsubstituted peptide [2] | RDA (x Fold change in activity) ([1]; alanine variant relative to BPI.2) | activity of position 95 substitution variants (in words) ([1]; activity not further specified) | HEPKd (x Fold change in activity) ([2]; heparin binding affinity, relative to BPI.2)
AKISGKWKAQKRFLK [BPI.15] | 9,705.10 pmol | 145.4 ng | 315 nM | = (no difference in the LAL assay) | b (no detectable activity up to 5 μg/well) |  |  |  |  |  |  | 
IAISGKWKAQKRFLK [BPI.16] | 7,550.90 pmol | 127.25 ng | 231 nM | = (no difference in the LAL assay) | b (no detectable activity up to 5 μg/well) |  |  |  |  |  |  | 
IKASGKWKAQKRFLK [BPI.17] | 15,836.70 pmol | 113.1 ng | 266 nM | ↓ (moderate) | b (no detectable activity up to 5 μg/well) | moderate |  |  |  |  |  | 
IKIAGKWKAQKRFLK [BPI.18] | 7,128.50 pmol | 156.6 ng | 381 nM | = (no difference in the LAL assay) | b (no detectable activity up to 5 μg/well) |  |  |  |  |  |  | 
IKISAKWKAQKRFLK [BPI.19] | 2,187.80 pmol | 203.6 ng | 266 nM | = (no difference in the LAL assay) | b (no detectable activity up to 5 μg/well) |  | =1.0 x Fold |  |  |  |  | 
IKISGAWKAQKRFLK [BPI.20] | 3,451.40 pmol | 203.6 ng | 485 nM | = (no difference in the LAL assay) | b (no detectable activity up to 5 μg/well) |  | =1.0 x Fold |  |  |  |  | 
IKISGKAKAQKRFLK [BPI.21] | 27,647.60 pmol | 50.9 ng | 231 nM |  | b (no detectable activity up to 5 μg/well) | large decrease in activity |  | more than 10 fold | 4 fold |  |  | 
IKISGKWAAQKRFLK [BPI.22] | 2,546.80 pmol | 135.7 ng | 315 nM | = (no difference in the LAL assay) | b (no detectable activity up to 5 μg/well) |  |  |  |  | =1.0 x Fold |  | 
IKISGKWKAQARFLK [BPI.24] | 654.60 pmol | 427.6 ng | 165 nM | = (no difference in the LAL assay) | 27,330.00 pmol |  |  |  |  |  | unexpected increase | 
IKISGKWKAQKAFLK [BPI.25] | 8,203.50 pmol | 107.2 ng | 346 nM | = (no difference in the LAL assay) | b (no detectable activity up to 5 μg/well) |  |  |  | ~2 fold |  |  | =1.0 x Fold
IKISGKWKAQKRALK [BPI.26] | 8,709.60 pmol | 113.1 ng | 231 nM | = (no difference in the LAL assay) | b (no detectable activity up to 5 μg/well) |  |  |  |  |  |  | 
